Calls of active or inactive are those of the source. The rule behind the calls is not given here.
Tests used:
[1] = system: MDA-MB-231; test: Antiproliferative activity against human MDA-MB-231 cells assessed as cell growth inhibition incubated for 72 hrs by MTT assay; format: functional, cell-based; settings: MDA-MB-231, 72 h
[2] = system: MDA-MB-468; test: Antiproliferative activity against human MDA-MB-468 cells assessed as cell growth inhibition incubated for 72 hrs by MTT assay; format: functional, cell-based; settings: MDA-MB-468, 72 h
[3] = system: BT-549; test: Antiproliferative activity against human BT-549 cells assessed as cell growth inhibition incubated for 72 hrs by MTT assay; format: functional, cell-based; settings: BT-549, 72 h
[4] = system: MCF7; test: Antiproliferative activity against human MCF7 cells assessed as cell growth inhibition incubated for 72 hrs by MTT assay; format: functional, cell-based; settings: MCF7, 72 h
[5] = system: HL-60; test: Antiproliferative activity against human HL-60 cells assessed as cell growth inhibition incubated for 72 hrs by MTT assay; format: functional, cell-based; settings: HL-60, 72 h
[6] = Antiproliferative activity against human MCF-10A cells assessed as cell growth inhibition incubated for 72 hrs by MTT assay; format: toxicity, cell-based
[7] = system: MV4-11; test: Antiproliferative activity against human MV4-11 cells assessed as cell growth inhibition incubated for 72 hrs by MTT assay; format: functional, cell-based; settings: MV4-11, 72 h
[8] = Antiproliferative activity against human L02 cells assessed as cell growth inhibition incubated for 72 hrs by MTT assay; format: toxicity, cell-based
[9] = Antiproliferative activity against human HK-2 cells assessed as cell growth inhibition incubated for 72 hrs by MTT assay; format: toxicity, cell-based
[10] = organism: Homo sapiens; test: Binding affinity to recombinant PRC2 complex (unknown origin) assessed as association rate constant by surface plasmon resonance assay
[11] = Binding affinity to recombinant PRC2 complex (unknown origin) assessed as dissociation rate constant by surface plasmon resonance assay; parameters: species or system Homo sapiens
[12] = Binding affinity to recombinant PRC2 complex (unknown origin) assessed as Equilibrium dissociation constant by surface plasmon resonance assay; parameters: species or system Homo sapiens
[13] = molecular target: T1, Protein cereblon/Histone-lysine N-methyltransferase EZH2 (Homo sapiens) (UniProt Q15910+Q96SW2); test: PROTAC activity at E3 ubiquitin ligase/EZH2 in human MDA-MB-468 cells assessed as induction of EZH2 degradation at 1 uM incubated for 48 hrs by western blot analysis; format: cell-based
[14] = molecular target: T1, Protein cereblon/Histone-lysine N-methyltransferase EZH2 (Homo sapiens); test: PROTAC activity at E3 ubiquitin ligase/EZH2 in human MDA-MB-231 cells assessed as induction of EZH2 degradation at 0.125 to 1 uM incubated for 48 hrs by western blot analysis; format: cell-based; settings: dose 0.125-1 µM, DDE = dose-dependent effect
[15] = molecular target: T1, Protein cereblon/Histone-lysine N-methyltransferase EZH2 (Homo sapiens); test: PROTAC activity at E3 ubiquitin ligase/EZH2 in human MDA-MB-231 cells assessed as induction of SUZ12 degradation at 0.125 to 1 uM incubated for 48 hrs by western blot analysis; format: cell-based; settings: dose 0.125-1 µM, DDE = dose-dependent effect
[16] = molecular target: T1, Protein cereblon/Histone-lysine N-methyltransferase EZH2 (Homo sapiens); test: PROTAC activity at E3 ubiquitin ligase/EZH2 in human MDA-MB-231 cells assessed as induction of EED degradation at 0.125 to 1 uM incubated for 48 hrs by western blot analysis; format: cell-based; settings: dose 0.125-1 µM, DDE = dose-dependent effect
[17] = molecular target: T1, Protein cereblon/Histone-lysine N-methyltransferase EZH2 (Homo sapiens); test: PROTAC activity at E3 ubiquitin ligase/EZH2 in human MDA-MB-468 cells assessed as induction of EZH2 degradation at 0.125 to 1 uM incubated for 48 hrs by western blot analysis; format: cell-based; settings: dose 0.125-1 µM, DDE = dose-dependent effect
[18] = molecular target: T1, Protein cereblon/Histone-lysine N-methyltransferase EZH2 (Homo sapiens); test: PROTAC activity at E3 ubiquitin ligase/EZH2 in human MDA-MB-468 cells assessed as induction of SUZ12 degradation at 0.125 to 1 uM incubated for 48 hrs by western blot analysis; format: cell-based; settings: dose 0.125-1 µM, DDE = dose-dependent effect
[19] = molecular target: T1, Protein cereblon/Histone-lysine N-methyltransferase EZH2 (Homo sapiens); test: PROTAC activity at E3 ubiquitin ligase/EZH2 in human MDA-MB-468 cells assessed as induction of EED degradation at 0.125 to 1 uM incubated for 48 hrs by western blot analysis; format: cell-based; settings: dose 0.125-1 µM, DDE = dose-dependent effect
[20] = molecular target: T1, Protein cereblon/Histone-lysine N-methyltransferase EZH2 (Homo sapiens); test: PROTAC activity at E3 ubiquitin ligase/EZH2 in human MDA-MB-468 cells assessed as induction of EZH2 degradation at 1 uM incubated for 12 to 48 hrs by western blot analysis; format: cell-based; settings: time 12-48 hrs
[21] = molecular target: T1, Protein cereblon/Histone-lysine N-methyltransferase EZH2 (Homo sapiens); test: PROTAC activity at E3 ubiquitin ligase/EZH2 in human MDA-MB-468 cells assessed as increase in EZH1 expression at 0.25 to 0.75 uM incubated for 48 hrs by western blot analysis; format: cell-based; settings: dose 0.25-0.75 µM
[22] = molecular target: T1, Protein cereblon/Histone-lysine N-methyltransferase EZH2 (Homo sapiens); test: PROTAC activity at E3 ubiquitin ligase/EZH2 in human MDA-MB-468 cells assessed as decrease in CARM1 expression at 0.25 to 0.75 uM incubated for 48 hrs by western blot analysis; format: cell-based; settings: dose 0.25-0.75 µM
[23] = molecular target: T1, Protein cereblon/Histone-lysine N-methyltransferase EZH2 (Homo sapiens); test: PROTAC activity at E3 ubiquitin ligase/EZH2 in human MDA-MB-468 cells assessed as decrease in H3K27me3 expression at 0.25 to 0.75 uM incubated for 48 hrs by western blot analysis; format: cell-based; settings: dose 0.25-0.75 µM
[24] = system: MDA-MB-231; test: Antiproliferative activity against human MDA-MB-231 cells assessed as colony growth inhibition at 0.25 to 0.75 uM incubated for 48 hrs by crystal violet staining method; format: functional, cell-based; settings: dose 0.25-0.75 µM
[25] = system: MDA-MB-468; test: Antiproliferative activity against human MDA-MB-468 cells assessed as colony growth inhibition at 0.25 to 0.75 uM incubated for 48 hrs by crystal violet staining method; format: functional, cell-based; settings: dose 0.25-0.75 µM
[26] = system: MDA-MB-468; test: Antiproliferative activity against human MDA-MB-468 cells assessed as reduction in EdU positive cells at 0.25 to 0.75 uM incubated for 48 hrs by EdU incorporation assay; format: functional, cell-based; settings: dose 0.25-0.75 µM
[27] = system: MDA-MB-231; test: Induction of apoptosis in human MDA-MB-231 cells assessed as increase in apoptotic cells at 0.25 to 0.75 uM incubated for 48 hrs by Annexin V-PE and 7AAD staining based flow cytometry; format: functional, cell-based; settings: dose 0.25-0.75 µM
[28] = system: MDA-MB-468; test: Induction of apoptosis in human MDA-MB-468 cells assessed as increase in apoptotic cells at 0.25 to 0.75 uM incubated for 48 hrs by Annexin V-PE and 7AAD staining based flow cytometry; format: functional, cell-based; settings: dose 0.25-0.75 µM
[29] = system: MDA-MB-231; test: Induction of apoptosis in human MDA-MB-231 cells assessed as increase in reduction in mitochondrial membrane potential at 0.25 to 0.75 uM incubated for 48 hrs by JC-1 staining based flow cytometry analysis; format: functional, cell-based; settings: dose 0.25-0.75 µM
[30] = system: MDA-MB-468; test: Induction of apoptosis in human MDA-MB-468 cells assessed as increase in reduction in mitochondrial membrane potential at 0.25 to 0.75 uM incubated for 48 hrs by JC-1 staining based flow cytometry analysis; format: functional, cell-based; settings: dose 0.25-0.75 µM
[31] = system: MDA-MB-468; test: Induction of apoptosis in human MDA-MB-468 cells assessed as increase in Bax expression at 0.25 to 0.75 uM incubated for 48 hrs by western blot analysis; format: functional, cell-based; settings: dose 0.25-0.75 µM
[32] = system: MDA-MB-468; test: Induction of apoptosis in human MDA-MB-468 cells assessed as decrease in Bcl-2 expression at 0.25 to 0.75 uM incubated for 48 hrs by western blot analysis; format: functional, cell-based; settings: dose 0.25-0.75 µM
[33] = system: MDA-MB-468; test: Induction of apoptosis in human MDA-MB-468 cells assessed as increase in cleaved caspase-3 expression at 0.25 to 0.75 uM incubated for 48 hrs by western blot analysis; format: functional, cell-based; settings: dose 0.25-0.75 µM
[34] = system: MDA-MB-468; test: Induction of apoptosis in human MDA-MB-468 cells assessed as increase in PARP expression at 0.25 to 0.75 uM incubated for 48 hrs by western blot analysis; format: functional, cell-based; settings: dose 0.25-0.75 µM
[35] = molecular target: T1, Protein cereblon/Histone-lysine N-methyltransferase EZH2 (Homo sapiens); test: PROTAC activity at E3 ubiquitin ligase/EZH2 in human MDA-MB-468 cells assessed as reduction on EZH2 expression at 0.75 uM incubated for 24 hrs by proteomic analysis; format: cell-based
[36] = molecular target: T1, Protein cereblon/Histone-lysine N-methyltransferase EZH2 (Homo sapiens); test: PROTAC activity at E3 ubiquitin ligase/EZH2 in human MDA-MB-468 cells assessed as reduction on SUZ12 expression at 0.75 uM incubated for 24 hrs by proteomic analysis; format: cell-based
[37] = molecular target: T1, Protein cereblon/Histone-lysine N-methyltransferase EZH2 (Homo sapiens); test: PROTAC activity at E3 ubiquitin ligase/EZH2 in human MDA-MB-468 cells assessed as reduction on EED expression at 0.75 uM incubated for 24 hrs by proteomic analysis; format: cell-based

T1 sequence (Q15910 whole entry, looked up): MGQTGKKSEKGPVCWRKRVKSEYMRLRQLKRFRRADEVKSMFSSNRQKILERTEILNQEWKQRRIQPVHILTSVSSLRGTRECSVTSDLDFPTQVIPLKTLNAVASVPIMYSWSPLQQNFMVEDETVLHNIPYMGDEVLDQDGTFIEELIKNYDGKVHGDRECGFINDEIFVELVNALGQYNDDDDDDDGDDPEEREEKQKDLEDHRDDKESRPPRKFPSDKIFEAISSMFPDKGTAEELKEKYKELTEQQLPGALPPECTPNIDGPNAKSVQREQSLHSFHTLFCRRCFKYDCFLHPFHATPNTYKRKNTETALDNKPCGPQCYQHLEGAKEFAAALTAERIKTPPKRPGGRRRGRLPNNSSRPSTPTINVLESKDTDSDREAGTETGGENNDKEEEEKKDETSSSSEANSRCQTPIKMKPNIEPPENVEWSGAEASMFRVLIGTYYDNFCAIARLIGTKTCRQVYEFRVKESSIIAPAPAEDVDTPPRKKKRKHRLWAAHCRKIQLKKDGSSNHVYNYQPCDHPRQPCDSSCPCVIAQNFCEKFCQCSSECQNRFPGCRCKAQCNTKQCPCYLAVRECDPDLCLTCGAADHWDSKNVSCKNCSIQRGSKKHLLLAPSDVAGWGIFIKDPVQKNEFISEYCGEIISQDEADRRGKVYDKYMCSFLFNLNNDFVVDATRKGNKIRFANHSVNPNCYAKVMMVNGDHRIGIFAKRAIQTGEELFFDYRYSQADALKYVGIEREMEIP
T1 sequence (Q96SW2 whole entry, looked up): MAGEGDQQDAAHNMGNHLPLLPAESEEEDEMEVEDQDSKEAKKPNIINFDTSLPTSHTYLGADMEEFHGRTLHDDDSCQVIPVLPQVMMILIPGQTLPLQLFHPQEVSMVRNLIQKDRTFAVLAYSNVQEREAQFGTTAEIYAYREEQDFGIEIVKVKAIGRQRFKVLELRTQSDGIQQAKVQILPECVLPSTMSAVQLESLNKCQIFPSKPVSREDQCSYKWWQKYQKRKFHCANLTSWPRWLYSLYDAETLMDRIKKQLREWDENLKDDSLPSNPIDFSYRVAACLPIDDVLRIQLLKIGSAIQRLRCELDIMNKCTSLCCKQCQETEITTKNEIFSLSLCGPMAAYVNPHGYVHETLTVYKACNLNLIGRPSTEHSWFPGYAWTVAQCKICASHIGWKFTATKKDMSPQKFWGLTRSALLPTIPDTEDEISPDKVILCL

Cc1cc(C)c(CNC(=O)c2cc(-c3ccc(N4CCN(C(=O)CCCCCCCCc5cn(CCOCCOCCOCCOCCOCCOCCNc6cccc7c6C(=O)N(C6CCC(=O)NC6=O)C7=O)nn5)CC4)nc3)cc3c2cnn3C(C)C)c(=O)[nH]1 (configuration not stated)
IC50 [1]: 570 nM | IC50 [2]: 380 nM | IC50 [3]: 400 nM | IC50 [4]: 18000 nM | IC50 [5]: 1080 nM | IC50 at 72 h [6]: > 40000 nM | IC50 [7]: 740 nM | IC50 at 72 h [8]: > 40000 nM | IC50 at 72 h [9]: > 40000 nM | Ka [10]: 5.7 10^6/Ms | koff [11]: 0.09231 s⁻¹ | Kd [12]: 16.2 nM | Activity [13]: Active | Activity [14]: Dde | Activity [15]: Dde | Activity [16]: Dde | Activity [17]: Dde | Activity [18]: Dde | Activity [19]: Dde | Activity [20]: Active | Activity [21]: Active | Activity [22]: Active | Activity [23]: Active | Activity [24]: Active | Activity [25]: Active | Activity [26]: Active | Activity [27]: Active | Activity [28]: Active | Activity [29]: Active | Activity [30]: Active | Activity [31]: Active | Activity [32]: Active | Activity [33]: Active | Activity [34]: Active | Activity [35]: Active | Activity [36]: Active | Activity [37]: Active
